# ChEMBL document CHEMBL6109177, “AI-Driven De Novo Design and Development of Nontoxic DYRK1A Inhibitors” (J Med Chem, 2025)
# Active and inactive are the calls of the source. The calls are words filed in the database; no cut-off is given here.
# What was measured:
# BV-2 [1] = assay: Anti-inflammatory activity in mouse BV-2 cells assessed as reduction in LPS-induced NO production at 10 uM pretreated with LPS for 24 hrs followed by compound addition and measured after 24 hrs by Griess reagent based analysis; assay type: functional, cell-based
# BV-2 [2] = assay: Cytotoxicity against mouse BV-2 cells assessed as cell viability up to 10 uM by MTT assay; assay type: toxicity, cell-based; details: bv-2, 10 µM
# BV-2 [3] = assay: Cytotoxicity against mouse BV-2 cells assessed as cell viability at 5 uM by MTT assay; assay type: toxicity, cell-based; details: bv-2, 5 µM
# BV-2 [4] = assay: Cytotoxicity against mouse BV-2 cells assessed as cell viability at 10 uM by MTT assay; assay type: toxicity, cell-based; details: bv-2, 10 µM
# BV-2 [5] = assay: Anti-inflammatory activity in mouse BV-2 cells assessed as reduction in LPS-induced NO production at 5 uM pretreated with LPS for 24 hrs followed by compound addition and measured after 24 hrs by Griess reagent based analysis; assay type: functional, cell-based
# BV-2 [6] = assay: Anti-inflammatory activity in mouse BV-2 cells assessed as reduction in LPS-induced NO production pretreated with LPS for 24 hrs followed by compound addition and measured after 24 hrs by Griess reagent based analysis; assay type: functional, cell-based; details: dose 0.5-5 µM
SMILES,Activity (BV-2 [1]),Activity (BV-2 [2]),Activity (BV-2 [3]),Activity (BV-2 [4]),Activity (BV-2 [5]),Activity (BV-2 [6])
Clc1cc(Cl)cc(-c2c[nH]c3ncc(-c4cnn(C5CCNCC5)c4)cc23)c1,Active,Non-toxic,–,–,–,–
CN1CCC(n2cc(-c3cnc4[nH]cc(-c5cccc(F)c5)c4c3)cn2)CC1,–,–,Non-toxic,Toxic,Active; Compound Showed Most Pronounced Effect Compared With Other Tested Compounds,Dose-dependent-effect
CN1CCC(n2cc(-c3cnc4[nH]cc(-c5cc(Cl)cc(Cl)c5)c4c3)cn2)CC1,Active,Non-toxic,–,–,–,–
COc1cccc(-c2c[nH]c3ncc(-c4cnn(C5CCN(C)CC5)c4)cc23)c1,–,–,Non-toxic,Toxic,Active,Dose-dependent-effect
COc1cc(-c2c[nH]c3ncc(-c4cnn(C5CCNCC5)c4)cc23)c(F)cc1C,Active,Non-toxic,–,–,–,–
COc1cc(-c2c[nH]c3ncc(-c4cnn(C5CCN(C)CC5)c4)cc23)c(F)cc1C,Active,Non-toxic,–,–,–,–
Fc1cccc(-c2c[nH]c3ncc(-c4cnn(C5CCNCC5)c4)cc23)c1,–,–,Non-toxic,Toxic,Active; Compound Showed Most Pronounced Effect Compared With Other Tested Compounds,Dose-dependent-effect
COc1cccc(-c2c[nH]c3ncc(-c4cnn(C5CCNCC5)c4)cc23)c1,–,–,Non-toxic,Toxic,Active,Dose-dependent-effect
